According to paper PMC7403315, “Cyclic peptide FXII inhibitor provides safe anticoagulation in a thrombosis model and in artificial lungs” (Nature Communications, 2020):
Values joined by “and” are separate entries in the source; they are usually repeats but may differ in a detail not shown here. Equal values may be shown once. Starred links: 1 amine or outer side, 2 acyl side, 3 side chain; linkers in the order of their positions; H or OH if unused. Positions of bridges follow the written chain, without caps; N, C: chain ends. Non-standard residues stand in square brackets, D forms with d. Residues, ends and D or L forms follow the SMILES beside them. TATA = O=C(CC[*:1])N1CN(C(=O)CC[*:2])CN(C(=O)CC[*:3])C1; Phe(4-F) = N[C@@H](Cc1ccc(F)cc1)C(=O)O; β3hR = N=C(N)NCCC[C@H](N)CC(=O)O

Key:
[1] = Observation of toxicity or adverse effects in the animal studies; type: in vivo, mice, rabbits, pigs; conditions: all studies with the three species
factor XIa = target: T1, factor XIa (Homo sapiens, UniProt P03951); assay: Specificity profiling, residual protease activity; type: biochemical
T1 construct: 1.5 nM, factor XIa (Innovative Research) 6 nM, plasma kallikrein (Innovative Research) 0.25; purchased Innovative Research
Protocol: (§1) Protease inhibition assays
(§2) The inhibitory activity of peptides was determined by measuring the residual protease activity with a fluorogenic substrate. The assay was performed in buffer containing 10 mM Tris-Cl, pH […]
(§3) 1% (v/v) DMSO in a volume of 150 µl. […]
(§4) HFXIIAB) were used at final concentrations of 0.4 nM. The reaction was pipetted as follows: 50 µl of bicyclic peptide in assay buffer were added to 50 µl of FXIIa in assay buffer and incubated for 10 minutes at 25°C before 50 µl of 150 µM fluorogenic substrate in assay buffer were added to measure the residual protease activity with an Infinite M200Pro fluorescence plate reader (excitation at 368 nm, emission at 467 nm; Tecan) for a period of 30 minutes with a read every minute at 25°C. The Tecan software i-control (version 1.1) was used for data analysis. Stock solutions of 1 mM bicyclic peptide were prepared by either dissolving the unpurified cyclization reaction with water or by dissolving purified and lyophilized peptide in water. The bicyclic peptides were serially diluted two-fold using assay buffer. Sigmoidal curves were fitted to the data using the following dose response equation (1), wherein x = peptide concentration, y = % protease activity, and p = Hill slope. IC50 values were derived from the fitted curve.
(§5) The inhibition constants (Ki) were calculated according to the equation of Cheng and Prusoff, Ki = IC50/(1+([S]0/Km), wherein IC50 is the functional strength of the inhibitor, [S]0 is the total substrate concentration, and Km is the Michaelis-Menten constant. […]
(§6) For testing the specificity of the bicyclic peptides, the following final concentrations of human serine proteases were used: tPA (Molecular Innovations) 7.5 nM, uPA (Molecular Innovations) 1.5 nM, factor XIa (Innovative Research) 6 nM, plasma kallikrein (Innovative Research) 0.25 nM, thrombin (Molecular Innovations) 1 nM, plasmin (Molecular Innovations) 2.5 nM, trypsin (Molecular Innovations) 0.05 nM, factor VIIa (Haematologic Technologies) 50 nM, factor Xa […]
(§7) (Haematologic Technologies) 6 nM, and activated protein C (APC) 5 nM. Two-fold dilutions of the peptide were prepared that ranged from 0.04 to 40 µM. The following fluorogenic substrates were used at a final concentration of 50 µM: Z-Phe-Arg-AMC (Bachem) for plasma kallikrein; Boc-Phe-Ser-Arg-AMC (Bachem) for factor XIa; Z-Gly-Gly-Arg-AMC (Bachem) for tPA, uPA, thrombin, and trypsin; H-D-Val-Leu-Lys-AMC (Bachem) for plasmin; and D-Phe-Pro-Arg-ANSNH-C4H9 (Haematologic Technologies) for FVIIa and FXa. For APC, the chromogenic substrate pyroGlu-Pro-Arg-pNA (S2366) was used at a concentration of 400 µM. […]

thrombin = target: T2, thrombin (Homo sapiens, UniProt P00734); assay: Specificity profiling, residual protease activity; type: biochemical
T2 construct: nM, thrombin (Molecular Innovations) 1 nM, plasmin (Molecular Innovations) 2.5 nM, trypsin; purchased Molecular Innovations
Protocol: as §1, §2, §3, §4, §5, §6, §7

trypsin = target: T3, trypsin (Homo sapiens, UniProt P07477); assay: Specificity profiling, residual protease activity; type: biochemical
T3 construct: purchased Molecular Innovations
Protocol: as §1, §2, §3, §4, §5, §6, §7

plasma kallikrein = target: T4, plasma kallikrein (Homo sapiens, UniProt P03952); assay: Specificity profiling, residual protease activity; type: biochemical
T4 construct: 1.5 nM, factor XIa (Innovative Research) 6 nM, plasma kallikrein (Innovative Research) 0.25; purchased Innovative Research
Protocol: as §1, §2, §3, §4, §5, §6, §7

[2] = inhibitor 39.0625 nM, 0.0390625 µM
[3] = inhibitor 78.125 nM, 0.078125 µM
[4] = inhibitor 156.25 nM, 0.15625 µM
[5] = inhibitor 40000 nM (40 µM), 40 µM

T1 sequence (P03951 388-625 limits assumed): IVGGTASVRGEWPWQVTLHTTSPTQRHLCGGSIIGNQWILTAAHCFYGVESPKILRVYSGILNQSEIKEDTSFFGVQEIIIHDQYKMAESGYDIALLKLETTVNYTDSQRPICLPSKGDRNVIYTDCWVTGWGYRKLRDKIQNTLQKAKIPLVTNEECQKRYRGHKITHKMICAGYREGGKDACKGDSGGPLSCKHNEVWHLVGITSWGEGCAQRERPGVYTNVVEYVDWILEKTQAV
T1 sequence (P03951 19-387 limits assumed): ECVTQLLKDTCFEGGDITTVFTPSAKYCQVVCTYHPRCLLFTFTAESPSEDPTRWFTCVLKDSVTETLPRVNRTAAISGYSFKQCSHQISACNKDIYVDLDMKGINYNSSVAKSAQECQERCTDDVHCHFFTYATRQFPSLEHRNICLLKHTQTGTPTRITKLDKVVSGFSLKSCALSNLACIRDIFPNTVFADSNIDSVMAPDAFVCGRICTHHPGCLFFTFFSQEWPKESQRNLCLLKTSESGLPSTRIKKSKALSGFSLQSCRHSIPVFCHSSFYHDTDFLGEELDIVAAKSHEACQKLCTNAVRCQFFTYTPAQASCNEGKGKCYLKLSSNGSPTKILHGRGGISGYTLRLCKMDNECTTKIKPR
T4 sequence (P03952 391-638 limits assumed): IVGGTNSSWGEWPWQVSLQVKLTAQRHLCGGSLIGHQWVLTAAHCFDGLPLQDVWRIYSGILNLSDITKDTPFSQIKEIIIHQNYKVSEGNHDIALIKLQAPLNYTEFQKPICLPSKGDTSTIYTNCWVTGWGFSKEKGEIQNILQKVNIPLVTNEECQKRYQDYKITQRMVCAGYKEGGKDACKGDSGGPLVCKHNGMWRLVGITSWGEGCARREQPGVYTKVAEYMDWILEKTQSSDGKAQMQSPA
T4 sequence (P03952 20-390 limits assumed): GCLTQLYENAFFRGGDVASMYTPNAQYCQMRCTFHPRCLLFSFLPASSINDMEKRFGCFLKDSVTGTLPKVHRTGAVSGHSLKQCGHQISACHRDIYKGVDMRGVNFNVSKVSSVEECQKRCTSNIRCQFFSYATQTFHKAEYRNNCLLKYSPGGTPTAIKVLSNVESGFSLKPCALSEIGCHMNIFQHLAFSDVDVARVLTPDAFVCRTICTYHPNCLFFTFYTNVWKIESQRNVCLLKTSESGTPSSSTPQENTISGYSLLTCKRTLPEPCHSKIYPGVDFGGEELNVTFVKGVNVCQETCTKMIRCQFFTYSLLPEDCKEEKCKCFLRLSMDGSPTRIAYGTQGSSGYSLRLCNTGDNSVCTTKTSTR

## CC(C)C[C@@H]1NC(=O)[C@H](CCC(N)=O)NC(=O)[C@H](Cc2c[nH]cn2)NC(=O)[C@@H]2CSCCC(=O)N3CN(CN(C3)C(=O)CCSC[C@H](NC(=O)[C@@H](CO)NC(=O)[C@H](N)CCCNC(=N)N)C(=O)N[C@@H](Cc3ccc(F)cc3)C(=O)N[C@@H](CCCNC(=N)N)C(=O)N[C@@H](CC(C)C)C(=O)N3CCC[C@H]3C(=O)N2)C(=O)CCSC[C@@H](C(N)=O)NC(=O)C[C@H](CCCNC(=N)N)NC1=O [FXII900] (H-[dR][dS]C[Phe(4-F)]RLPCHQL[β3hR]C-NH2; linker 3-8-13 via TATA)
[1]
  signs of toxicity or other adverse effects: did not observe any signs of toxicity or other adverse effects
Factor XIa; [2]
  Residual activity of FXIa: 100.642%
Factor XIa; inhibitor 39.0625 nM, read-out: Residual activity of FXIa
  remaining activity at 0.0390625 µM: 96.6%
Factor XIa; [3]
  Residual activity of FXIa: 103.852%
Factor XIa; inhibitor 78.125 nM, read-out: Residual activity of FXIa
  remaining activity at 0.078125 µM: 93.8%
Factor XIa; [4]
  Residual activity of FXIa: 98.179%
Factor XIa; inhibitor 156.25 nM, read-out: Residual activity of FXIa
  remaining activity at 0.15625 µM: 94.7%
Factor XIa; inhibitor 312.5 nM, 0.3125 µM
  Residual activity of FXIa: 98.2463%
Factor XIa; inhibitor 312.5 nM, read-out: Residual activity of FXIa
  remaining activity at 0.3125 µM: 97.5%
Factor XIa; inhibitor 625 nM, 0.625 µM
  Residual activity of FXIa: 97.4314%
Factor XIa; inhibitor 625 nM, read-out: Residual activity of FXIa
  remaining activity at 0.625 µM: 94.9%
Factor XIa; inhibitor 1250 nM, 1.25 µM
  Residual activity of FXIa: 98.4364%
Factor XIa; inhibitor 1250 nM, read-out: Residual activity of FXIa
  remaining activity at 1.25 µM: 94.1%
Factor XIa; inhibitor 2500 nM, […]
  Residual activity of FXIa: 98.6547%
Factor XIa; inhibitor 2500 nM, read-out: Residual activity of FXIa
  remaining activity at […]: 91.5%
Factor XIa; inhibitor 5000 nM, 5 µM
  Residual activity of FXIa: 98.6945%
Factor XIa; inhibitor 5000 nM, read-out: Residual activity of FXIa
  remaining activity at 5 µM: 98.9%
Factor XIa; inhibitor 10000 nM, 10 µM
  Residual activity of FXIa: 99.1545%
Factor XIa; inhibitor 10000 nM, read-out: Residual activity of FXIa
  remaining activity at 10 µM: 97.3%
Factor XIa; inhibitor 20000 nM, 20 µM
  Residual activity of FXIa: 95.8964%
Factor XIa; inhibitor 20000 nM, read-out: Residual activity of FXIa
  remaining activity at 20 µM: 96.3%
Factor XIa; [5]
  Residual activity of FXIa: 95.5908% and 94.7249%
Factor XIa; inhibitor 40000 nM (40 µM), read-out: Residual activity of FXIa
  remaining activity at 40 µM: 95.1%
Factor XIa; read-out: Ki FXIa
  Ki: > 40 µM
thrombin
  Ki: > 40 µM
thrombin; inhibitor 39.0625 nM
  remaining activity at 0.0390625 µM: 101%
thrombin; [2]
  Residual activity of Thrombin: 100%
thrombin; inhibitor 78.125 nM
  remaining activity at 0.078125 µM: 103%
thrombin; [3]
  Residual activity of Thrombin: 98.3135%
thrombin; inhibitor 156.25 nM
  remaining activity at 0.15625 µM: 105%
thrombin; [4]
  Residual activity of Thrombin: 102.594%
thrombin; inhibitor 312.5 nM
  remaining activity at 0.3125 µM: 104%
thrombin; inhibitor 312.5 nM, 0.3125 µM
  Residual activity of Thrombin: 101.218%
thrombin; inhibitor 625 nM
  remaining activity at 0.625 µM: 102%
thrombin; inhibitor 625 nM, 0.625 µM
  Residual activity of Thrombin: 96.4184%
thrombin; inhibitor 1250 nM
  remaining activity at 1.25 µM: 105%
thrombin; inhibitor 1250 nM, 1.25 µM
  Residual activity of Thrombin: 102.09%
thrombin; inhibitor 2500 nM
  remaining activity at […]: 103%
thrombin; inhibitor 2500 nM, […]
  Residual activity of Thrombin: 101.007%
thrombin; inhibitor 5000 nM
  remaining activity at 5 µM: 105%
thrombin; inhibitor 5000 nM, 5 µM
  Residual activity of Thrombin: 93.4869%
thrombin; inhibitor 10000 nM
  remaining activity at 10 µM: 99%
thrombin; inhibitor 10000 nM, 10 µM
  Residual activity of Thrombin: 98.045%
thrombin; inhibitor 20000 nM
  remaining activity at 20 µM: 102%
thrombin; inhibitor 20000 nM, 20 µM
  Residual activity of Thrombin: 95.8152%
thrombin; inhibitor 40000 nM (40 µM)
  remaining activity at 40 µM: 95%
thrombin; [5]
  Residual activity of Thrombin: 99.0803% and 90.0661%
trypsin
  Ki: 1.46 µM
trypsin; inhibitor 39.0625 nM
  remaining activity at 0.0390625 µM: 99%
trypsin; [2]
  Residual activity of Trypsin: 98.1138%
trypsin; inhibitor 78.125 nM
  remaining activity at 0.078125 µM: 100%
trypsin; [3]
  Residual activity of Trypsin: 99.9393%
trypsin; inhibitor 156.25 nM
  remaining activity at 0.15625 µM: 91.6%
trypsin; [4]
  Residual activity of Trypsin: 92.2203%
trypsin; inhibitor 312.5 nM
  remaining activity at 0.3125 µM: 86%
trypsin; inhibitor 312.5 nM, 0.3125 µM
  Residual activity of Trypsin: 88.4651%
trypsin; inhibitor 625 nM
  remaining activity at 0.625 µM: 77.9%
trypsin; inhibitor 625 nM, 0.625 µM
  Residual activity of Trypsin: 73.7094%
trypsin; inhibitor 1250 nM
  remaining activity at 1.25 µM: 64%
trypsin; inhibitor 1250 nM, 1.25 µM
  Residual activity of Trypsin: 61.5181%
trypsin; inhibitor 2500 nM
  remaining activity at […]: 47.5%
trypsin; inhibitor 2500 nM, […]
  Residual activity of Trypsin: 46.5602%
trypsin; inhibitor 5000 nM
  remaining activity at 5 µM: 34.6%
trypsin; inhibitor 5000 nM, 5 µM
  Residual activity of Trypsin: 30.2825%
trypsin; inhibitor 10000 nM
  remaining activity at 10 µM: 21%
trypsin; inhibitor 10000 nM, 10 µM
  Residual activity of Trypsin: 19.2935%
trypsin; inhibitor 20000 nM
  remaining activity at 20 µM: 12.9%
trypsin; inhibitor 20000 nM, 20 µM
  Residual activity of Trypsin: 12.2739%
trypsin; inhibitor 40000 nM (40 µM)
  remaining activity at 40 µM: 9.2%
trypsin; [5]
  Residual activity of Trypsin: 9.912% and 8.397%
Plasma kallikrein
  Ki: > 40 µM
Plasma kallikrein; inhibitor 39.0625 nM
  remaining activity at 0.0390625 µM: 98.1%
Plasma kallikrein; [2]
  Residual activity of Plasma kallikrein: 100.436%
Plasma kallikrein; inhibitor 78.125 nM
  remaining activity at 0.078125 µM: 98.4%
Plasma kallikrein; [3]
  Residual activity of Plasma kallikrein: 99.938%
Plasma kallikrein; inhibitor 156.25 nM
  remaining activity at 0.15625 µM: 98.9%
Plasma kallikrein; [4]
  Residual activity of Plasma kallikrein: 99.0018%
Plasma kallikrein; inhibitor 312.5 nM
  remaining activity at 0.3125 µM: 102%
Plasma kallikrein; inhibitor 312.5 nM, 0.3125 µM
  Residual activity of Plasma kallikrein: 98.8676%
Plasma kallikrein; inhibitor 625 nM
  remaining activity at 0.625 µM: 101%
Plasma kallikrein; inhibitor 625 nM, 0.625 µM
  Residual activity of Plasma kallikrein: 98.0454%
Plasma kallikrein; inhibitor 1250 nM
  remaining activity at 1.25 µM: 101%
Plasma kallikrein; inhibitor 1250 nM, 1.25 µM
  Residual activity of Plasma kallikrein: 97.0056%
Plasma kallikrein; inhibitor 2500 nM
  remaining activity at […]: 96%
Plasma kallikrein; inhibitor 2500 nM, […]
  Residual activity of Plasma kallikrein: 95.4747%
Plasma kallikrein; inhibitor 5000 nM
  remaining activity at 5 µM: 92.8%
Plasma kallikrein; inhibitor 5000 nM, 5 µM
  Residual activity of Plasma kallikrein: 93.0245%
Plasma kallikrein; inhibitor 10000 nM
  remaining activity at 10 µM: 91.9%
Plasma kallikrein; inhibitor 10000 nM, 10 µM
  Residual activity of Plasma kallikrein: 91.0418%
Plasma kallikrein; inhibitor 20000 nM
  remaining activity at 20 µM: 84.1%
Plasma kallikrein; inhibitor 20000 nM, 20 µM
  Residual activity of Plasma kallikrein: 81.6415%
Plasma kallikrein; inhibitor 40000 nM (40 µM)
  remaining activity at 40 µM: 72%
Plasma kallikrein; [5]
  Residual activity of Plasma kallikrein: 73.9098% and 69.1761%
